Legend:
[1] = test system: human ovarian cancer cell lines; experiment: 4-day or 6-day cancer cell line growth assay screens (CellTiter-Glo, NCA); type: cell-based; details: nine TP53 wild-type ovarian cancer cell lines
Experimental: (§1) An analysis was carried out to identify cancer cell lines sensitivity profile to the KIF18A inhibitor Compound C9. In this analysis, a panel of different human breast and ovarian cancer cell lines (Table 2 of FIG. 4A and Table 3 of FIG. 4B), were used in either a 4-day or 6-day cancer cell line growth assay screen.
(§2) In the 4-day growth assay screen, cancer cell lines were treated in 96-well tissue culture plates at pre-optimized seeding density. Growth media conditions were determined by ChemPartners (Shanghai, China). After 24 hours, cells were treated with KIF18A inhibitor (Compound C9; final 10-point concentration range 2.0 μM to 0.0001 μM, 3-fold dilution) in a 4-day cell growth assay based on quantitation of ATP as an indicator of viable cells using CellTiter-GLO 2.0 readout (CTG, Promega). CTG assay was performed in duplicate for each cell line. Detection was performed using luminescence plate reader and expressed as relative luminescence units (RLU) based on POC (percentage of DMSO control). Raw data was provided to Amgen for curve-fitting analysis with 4-parameter equation (variable slope) using GraphPad Prism software (V7.0.4). […]
(§3) An expanded screen was performed using 6-day growth assay, cancer cell lines were treated in black 384-well tissue culture plates at 500-1500 cells per well. Growth media conditions were determined by Horizon Discovery (Cambridge, United Kingdom). After 24 hours, cells were treated with KIF18A inhibitor (Compound C9; final 11-point concentration range 2.0 μM to 0.0000339 μM, 3-fold dilution) in a 6-day cell growth assay based on quantitation of ATP as an indicator of viable cells using CellTiter-GLO 2.0 readout (Promega). Luminescence was detected using Envision plate reader (Perkin Elmer) and expressed as relative luminescence units (RLU) based on POC (percentage of control). […]
(§4) In Tables 2 and 3, “?” means that there were differences in sensitivity calls between the first screen and the second screen, and “ND” means not determined. […]

[2] = test system: human breast cancer cell lines; experiment: as above; type: cell-based
Experimental: as §1, §2, §3, §4

[3] = test system: BT-549 TNBC cells; experiment: Western blot and cGAS/γH2A.X immunostaining (Example 8); type: cell-based, human; details: 0.2 μM, 48 hours
Experimental: In order to analyze the effects on mitosis, BT-549 TNBC cells were seeded into 6-well plates at a density of 100,000 per well in 3 replicate wells in 4 mL of complete growth media. The next day, cells were treated with DMSO, KIF18A inhibitor #1 (Compound C11, 0.5 μM), or KIF18A inhibitor #2 (Compound C9, 0.01 μM) in 4 mL of complete media at a final DMSO concentration of 0.5%. After 48 hours, cell lysates were prepared for each treatment group (combined media and cells from 3 wells) using Minute™ Total Protein Extraction kit (SD-001, Invent Biotechnologies) lysis conditions according to manufactures protocol, supplemented with protease inhibitor cocktail (cOmplete™, Roche) and phospatase inhibitors (PhosphoStop, Roche). Primary antibodies included rabbit anti-p-Histone H3 (serine-10) (06-570, Millipore, 1: 2000), mouse anti-γH2A.X (serine-139) (05-636, Millipore, 1: 2000), mouse anti-cleaved-PARP (cl-PARP) (#51-900017, BD Pharmingen, 1:500), mouse anti-BubR1 (612503, BD Pharmingen, 1:5000), mouse anti-total HEC1 (ab3613, ABCAM, 1: 1000), rabbit anti-pHEC1(serine-55) (GTX70017, Genetex, 1: 500), and rabbit anti-GAPDH (2118, Cell Signaling, 1:10,000).
Also, cGAS and γH2A.X (serine-139) immunostaining in BT-549 TNBC cells was carried out. […] Wide-field images were captured using 40×objective on upright Nikon Eclipse NI-E epi-fluorescence microscope running Elements software.

In the case of `CC(C)(C)NS(=O)(=O)c1cccc(NC(=O)c2ccc(S(=O)(=O)NC(C)(C)C)cc2N2CCC3(CC2)CC3)c1` [Compound C9, 4-(N-(tert-butyl)sulfamoyl)-N-(3-(N-(tert-butyl)sulfamoyl)phenyl)-2-(6-azaspiro[2.5]octan-6-yl)benzamide], the “sensitivity to KIF18A inhibitor” value [1] is reported as “None of the nine TP53 wild-type ovarian cancer cell lines were sensitive”, the “sensitivity to KIF18A inhibitor” value ([2]; luminal A or luminal B breast cancer cell lines) is reported as “None of the luminal A or luminal B breast cancer cell lines were sensitive” and the “sensitivity to KIF18A inhibitor” value ([2]; nine TP53 wild-type breast cancer cell lines incl. CAL-51, DU4475) is reported as “None of the nine TP53 wild-type breast cancer cell lines were sensitive”. For the same compound, the “cGAS and γH2A.X staining of cytoplasmic micronuclei” value [3] was “increase in DNA damage and cGAS positive micronuclei”.
